Source: patent US20200297760A1, “COMPOSITIONS AND METHODS FOR REDUCING IMMUNE RESPONSES AGAINST CHIMERIC ANTIGEN RECEPTORS” (Juno Therapeutics, Inc., priority 2015, published 2020)
No end group written: not given here.

Columns and labels:
Assay in all cases: REVEAL Epitope Discovery System in vitro MHC-peptide binding assay
HLA-A*02:01 = HLA-A*02:01 (Homo sapiens, UniProt P04439, D140Y/D185E/D98H/E176V/E277Q/G131W/G231S/I119V/I121R/I166T/I218V/L300P/L318F/N151K/N90K/P208A/P217A/Q86G/Q94H/R138H/R169H/T345S); settings: binding normalized to positive control peptide set at 100%, greater than 50 considered good or high affinity binding
Procedure: (§1) Actual binding affinities for certain HLA class I alleles (A*02:01, A*03:01, A*11:01, and B*08:01) were assessed in vitro for exemplary overlapping 9 amino acid peptide sequences within a portion of the 26 amino acid junction region spanning the CD28 and 4-1BB junction. Specifically, assessment was of a series of overlapping 9-mer peptides derived from the sequence […] (set forth in SEQ ID NO: 7), which contains a portion of the CD28 transmembrane domain and 4-1BB costimulatory domain spanning the junction between the domains (bond joining the two amino acids noted in underline). In addition, a series of overlapping 9-mer peptides of each of a number of different variants of this portion also were assessed, each variant containing a mutation or mutations in this region as described in Example 2.
(§2) The various 9-mer overlapping peptides were synthesized and their purity tested by MALDI-TOF Mass Spectrometry. The synthetic peptides were then incubated with recombinant MHC molecules to assess binding properties using the REVEAL Epitope Discovery System, which is a high-throughput binding assay that measures the degree to which each peptide is able to stabilize a ternary MHC-peptide complex (Prolmmune, Oxford, United Kingdom). Each peptide was separately tested for this ability with respect to each of the HLA class I alleles, normalized to the degree observed for a positive control (known T cell epitope for the relevant allele). The results are reported as a score, in which the binding was normalized to the positive control peptide set at 100%. In this analysis, a score of greater than 50 generally was considered to represent good or high affinity binding.

HLA-A*03:01 = HLA-A*03:01 (Homo sapiens, UniProt P04439); settings: REVEAL score, binding normalized to positive control peptide set at 100%; greater than 50 considered good or high affinity binding
Procedure: as §1, §2

HLA-A*11:01 = HLA-A*11:01 (Homo sapiens, UniProt P04439, A114D/D185E/E176A/F33Y/L180Q/S129P/T187R); settings: binding normalized to positive control peptide set at 100%, >50 considered good or high affinity binding
Procedure: as §1, §2

HLA-B*08:01 = HLA-B*08:01 (Homo sapiens, UniProt P01889, A93T/A95T/D138N/E176V/E187T/K202T/Q94N/R180D/S35A/V36M/Y33D/Y91F); settings: binding normalized to positive control peptide set at 100%, >50 considered good or high affinity binding
Procedure: as §1, §2

A*02:01 In Vitro Score (HLA-A*02:01) | A*03:01 In Vitro (HLA-A*03:01) | A*11:01 In Vitro Score (HLA-A*11:01) | B*08:01 In Vitro Score (HLA-B*08:01) | Compound
13.50 | 5.00 | 8.90 | 0.00 | CC(C)[C@H](NC(=O)[C@H](Cc1c[nH]c2ccccc12)NC(=O)[C@@H](N)Cc1ccccc1)C(=O)N[C@@H](C)C(=O)N[C@@H](CCCNC(=N)N)C(=O)NCC(=O)N[C@@H](CCCNC(=N)N)C(=O)N[C@@H](CCCCN)C(=O)N[C@@H](CCCCN)C(=O)O
0.80 | 1.90 | 6.80 | 0.00 | FWVQRGSKK
2.40 | 26.90 | 61.10 | 58.30 | IFWVKRGLK
1.90 | 1.20 | 0.80 | 0.70 | WVQRGNKKA
0.70 | 1.50 | 109.20 | 0.30 | VAFIIFWVK
4.30 | 4.70 | 13.20 | 0.30 | FWVKRGAKK
4.30 | 1.50 | 10.70 | 32.00 | WVQRGNKKL
3.10 | 1.30 | 5.90 | 0.00 | FWVQRGNKK
6.10 | 36.70 | 128.50 | 0.00 | IFWVQRGRK
5.20 | 6.40 | 5.70 | 1.90 | FWVQRGRKK
2.60 | 4.10 | 27.60 | 0.40 | FWVKRGHKK
16.80 | 0.40 | 1.50 | 0.60 | FIIFWVQRG
8.70 | 3.60 | 7.30 | 0.10 | CC(C)[C@H](NC(=O)[C@H](Cc1c[nH]c2ccccc12)NC(=O)[C@@H](N)Cc1ccccc1)C(=O)N[C@@H](CCCCN)C(=O)N[C@@H](CCCNC(=N)N)C(=O)NCC(=O)N[C@@H](CC(N)=O)C(=O)N[C@@H](CCCCN)C(=O)N[C@@H](CCCCN)C(=O)O
3.90 | 0.90 | 6.70 | 4.30 | WVKRGRKKS
13.80 | 22.00 | 69.70 | 2.20 | IFWVKRGAK
2.30 | 2.10 | 4.40 | 6.20 | WVSRGRKKL

Second part, the compound before the results:

Compound | A*02:01 In Vitro Score (HLA-A*02:01) | A*03:01 In Vitro (HLA-A*03:01) | A*11:01 In Vitro Score (HLA-A*11:01) | B*08:01 In Vitro Score (HLA-B*08:01)
FWVHRGRKK | 1.60 | 3.60 | 5.60 | 0.00
FWVKRGRKK | 3.50 | 2.20 | 6.50 | 0.00
CC[C@H](C)[C@H](N)C(=O)N[C@H](C(=O)N[C@@H](Cc1ccccc1)C(=O)N[C@@H](Cc1c[nH]c2ccccc12)C(=O)N[C@H](C(=O)N[C@@H](CCCCN)C(=O)N[C@@H](CCCNC(=N)N)C(=O)NCC(=O)N[C@@H](CO)C(=O)O)C(C)C)[C@@H](C)CC | 13.60 | 16.20 | 100.00 | 0.40
CC(C)C[C@H](NC(=O)CNC(=O)[C@H](CCCNC(=N)N)NC(=O)[C@H](CCCCN)NC(=O)[C@@H](NC(=O)[C@H](Cc1c[nH]c2ccccc12)NC(=O)[C@@H](N)Cc1ccccc1)C(C)C)C(=O)N[C@@H](CCCCN)C(=O)N[C@@H](CCCCN)C(=O)O | 9.40 | 2.70 | 25.30 | 6.30
IFWVSRGRK | 1.30 | 39.20 | 39.20 | 0.00
IIFWVKRGL | 82.20 | 15.90 | 32.40 | 1.70
WVKRGRKKL | 1.40 | 13.10 | 4.80 | 28.50
WVKRGSKKL | 3.00 | 1.90 | 11.80 | 56.10
FWVLRGRKK | 3.30 | 0.40 | 5.00 | 0.00
VAFIIFWVL | 0.20 | 0.00 | 0.20 | 0.00
IIFWVQRGS | 22.40 | 4.50 | 16.90 | 0.10
IIFWVQRGN | 13.00 | 3.60 | 29.00 | 0.00
CC(C)[C@H](NC(=O)[C@@H](N)Cc1c[nH]c2ccccc12)C(=O)N[C@@H](CCC(N)=O)C(=O)N[C@@H](CCCNC(=N)N)C(=O)NCC(=O)N[C@@H](CC(N)=O)C(=O)N[C@@H](CCCCN)C(=O)N[C@@H](CCCCN)C(=O)N[C@@H](CO)C(=O)O | 1.20 | 0.70 | 5.00 | 0.00
CC[C@H](C)[C@H](N)C(=O)N[C@H](C(=O)N[C@@H](Cc1ccccc1)C(=O)N[C@@H](Cc1c[nH]c2ccccc12)C(=O)N[C@H](C(=O)N[C@@H](C)C(=O)N[C@@H](CCCNC(=N)N)C(=O)NCC(=O)N[C@@H](CCCNC(=N)N)C(=O)O)C(C)C)[C@@H](C)CC | 9.60 | 18.60 | 70.60 | 0.30
AFIIFWVHR | 0.30 | 0.30 | 34.90 | 0.30
CC[C@H](C)[C@H](N)C(=O)N[C@H](C(=O)N[C@@H](Cc1ccccc1)C(=O)N[C@@H](Cc1c[nH]c2ccccc12)C(=O)N[C@H](C(=O)N[C@@H](CC(C)C)C(=O)N[C@@H](CCCNC(=N)N)C(=O)NCC(=O)N[C@@H](CCCNC(=N)N)C(=O)O)C(C)C)[C@@H](C)CC | 8.40 | 2.80 | 35.20 | 0.40
WVHRGRKKL | 1.60 | 3.40 | 5.60 | 19.20
FIIFWVHRG | 37.30 | 0.00 | 0.90 | 0.20
CC(C)C[C@H](NC(=O)[C@H](CCCCN)NC(=O)[C@H](CCCCN)NC(=O)[C@H](CCCNC(=N)N)NC(=O)CNC(=O)[C@H](CCCNC(=N)N)NC(=O)[C@H](CCC(N)=O)NC(=O)[C@@H](NC(=O)[C@@H](N)Cc1c[nH]c2ccccc12)C(C)C)C(=O)O | 8.10 | 4.90 | 12.80 | 45.10
IIFWVKRGA | 85.90 | 42.90 | 22.60 | 0.90
FWVSRGRKK | 1.50 | 2.90 | 6.30 | 0.00
IIFWVQRGA | 95.30 | 2.70 | 56.50 | 0.20
IIFWVSRGR | 2.60 | 25.30 | 68.90 | 0.00
VAFIIFWVR | 1.20 | 0.70 | 34.60 | 0.10
